Data set [1] deals with Actinomyces israelii. Nature of the data set: In vitro antibacterial activity against Actinomycetes israelii 28360. In kind it is functional.
For data set [2], the system named is Actinomyces naeslundii. Nature of the data set: In vitro antibacterial activity against Actinomycetes naeslundii 12104. In kind it is functional.
Data set [3] relates to Actinomyces naeslundii. Description: In vitro antibacterial activity against Actinomycetes naeslundii 8115. In kind it is functional.
The test system of data set [4] is Actinomyces viscosus. Description: In vitro antibacterial activity against Actinomyces viscosus M-100-2000. In kind it is functional.
Data set [5] concerns Actinomyces israelii. Nature of the data set: In vitro antibacterial activity against Actinomycetes israelii 10048. It counts as functional.
Data set [6] relates to Actinomyces viscosus. Nature of the data set: In vitro antibacterial activity against Actinomycetes viscosus T14V. In kind it is functional.
Data set [7] concerns Actinomyces israelii. Description: In vitro antibacterial activity against Actinomycetes israelii 12836. It counts as functional.
The nature of data set [8]: Distribution coefficient between octanol and aqueous phase at pH7.2. It counts as physicochemical. The note with it: pH 7.2.
Data set [9] in a line: Observed inhibitory activity against various Actinomycetes strains. Conditions: actinomycetaceae.
Data set [10] is described as follows: Partition coefficient is determined in octanol/buffer solution. It counts as physicochemical. The note with it: octanol/buffer; read-out: logP.
The nature of data set [11]: Dissociation constant is the negative logarithm of the equilibrium coefficient of the neutral and charged forms of the compound. In kind it is physicochemical.

Converted amounts (≈) assume the structure as drawn. A value given as a limit tells only on which side of the number the result lay.

By MIC is commonly meant the lowest concentration found to suppress growth. A lower MIC goes with a more susceptible organism. With `CCCCCCCCCC(=O)c1ccc(O)c(C(=O)Nc2nc3ccccc3s2)c1`, the MIC was greater than 10 µg/mL against Actinomyces israelii [1]; greater than 10 µg/mL against Actinomyces naeslundii [2]; greater than 10 µg/mL in the data set with Actinomyces naeslundii [3]; 0.5 µg/mL (≈ 1.18 µM) in the data set on Actinomyces viscosus [4]; 5 µg/mL (≈ 11.8 µM) in the data set on Actinomyces israelii [5]; 10 µg/mL (≈ 23.6 µM) against Actinomyces viscosus [6]. The compound further yielded an MIC against Actinomyces israelii [7] greater than 10 µg/mL.
Compound `COc1ccc(NC(=O)c2cc(C)ccc2O)cc1` showed an MIC in the data set with Actinomyces viscosus [4] greater than 40 µg/mL.
Same read-out and setting: in the case of `CCCCCCCCCC(=O)c1ccc(O)c(C(=O)NCc2ccc(Cl)c(Cl)c2)c1` it was 0.5 µg/mL (≈ 1.11 µM); in that of `O=C(NCc1ccc(Cl)cc1)c1cc(Br)cc(Br)c1O`, 4 µg/mL (≈ 9.54 µM).
Compound `CCCCCCCCCCCC(=O)c1ccc(O)c(C(=O)Nc2ccc([N+](=O)[O-])cc2)c1` yielded a minimum inhibitory concentration (MIC) against Actinomyces viscosus [4] of 0.05 µg/mL (≈ 0.113 µM).
The same measure, in the same setting: then `CCCCCCCCc1ccc(O)c(C(=O)Nc2ccc(Br)cc2)c1`, with 0.2 µg/mL (≈ 0.495 µM); and `Cc1ccc(O)c(C(=O)Nc2ccc([N+](=O)[O-])cc2)c1`, with 5 µg/mL (≈ 18.4 µM); and `O=C(Nc1nc2cc(Cl)ccc2o1)c1cc(Br)cc(Br)c1O`, with greater than 35 µg/mL.
On the same count and under the same terms, in the case of `CCCCCCc1ccc(O)c(C(=O)NCc2ccc(C)c([N+](=O)[O-])c2)c1` it was greater than 20 µg/mL; in that of `CCCCCCCC(=O)c1ccc(O)c(C(=O)Nc2ccc([N+](=O)[O-])cc2)c1`, 0.1 µg/mL (≈ 0.26 µM).
For orientation: logD means the decadic logarithm of the distribution of all forms, ionised or not, between an organic phase and buffer at a given pH. The logP is a log measure of how a compound divides between an organic and an aqueous phase. By pKa is commonly meant the pH at which an ionisable group is half protonated. Read a low pKa as a stronger acid or weaker base. `CCCCCCCCCC(=O)c1ccc(O)c(C(=O)Nc2ccc(Br)cc2)c1` yielded a logD in data set [8] of 6.88. The “Log 1/MIC” value in data set [9] was found to be 6.87. In data set [10], the logP was 8.02. For the same compound, the pKa in [11] worked out at 6.1. In addition, inhibition of growth in the data set with Actinomyces viscosus [4] (MIC) required 0.06 µg/mL (≈ 0.134 µM).
As for `O=C(Nc1nc2cc(Cl)ccc2[nH]1)c1cc(Br)cc(Br)c1O`, the MIC against Actinomyces viscosus [4] came to 4 µg/mL (≈ 8.98 µM).
On the same count and under the same terms, in the case of `O=C(Nc1nc2c(Cl)cccc2s1)c1cc(Br)cc(Br)c1O` it was 1.7 µg/mL (≈ 3.68 µM).
As to `O=C(Nc1ccc(Br)cc1)c1cc([N+](=O)[O-])ccc1O`, in data set [8], the logD was determined as 3.16. For the same compound, the “Log 1/MIC” value in data set [9] came out at 5.05. Besides, in data set [10], the logP came out at 4.58. Also, the pKa in [11] was 5.8. In the data set on Actinomyces viscosus [4], this compound displayed an MIC of 3 µg/mL (≈ 8.9 µM).
For the compound `CCCCc1ccc(O)c(C(=O)Nc2cccc(C(F)(F)F)c2)c1`, the MIC against Actinomyces viscosus [4] was found to be 0.5 µg/mL (≈ 1.48 µM).
The compound `O=C(Nc1ccc(Br)cc1)c1ccccc1O` came in with a logD in data set [8] of 3.78. The “Log 1/MIC” value in [9] is 4.47. Moreover, the logP in [10] was determined as 4.13. Further, the pKa in data set [11] came out at 7.1. Also, the MIC against Actinomyces viscosus [4] came out at 10 µg/mL (≈ 34.2 µM).
On the same counts, the results for `CCC(=O)c1ccc(O)c(C(=O)Nc2ccc(Br)cc2)c1` are 3.38, 4.43, 4.52, 6.1 and 13 µg/mL (≈ 37.3 µM).
`Cc1nnc(NC(=O)c2cc(Br)cc(Br)c2O)s1`: in the data set with Actinomyces viscosus [4], the MIC came out at 100 µg/mL (≈ 254 µM).
As to `CCCCCCc1ccc(O)c(C(=O)NCc2ccc([N+](=O)[O-])cc2)c1`, the MIC came out at 0.1 µg/mL (≈ 0.281 µM) in the data set with Actinomyces israelii [1]; 0.05 µg/mL (≈ 0.14 µM) against Actinomyces naeslundii [2]; 0.05 µg/mL (≈ 0.14 µM) against Actinomyces naeslundii [3]; 0.05 µg/mL (≈ 0.14 µM) with Actinomyces viscosus [4]; 0.5 µg/mL (≈ 1.4 µM) against Actinomyces israelii [5]; 0.05 µg/mL (≈ 0.14 µM) with Actinomyces viscosus [6]. The MIC against Actinomyces israelii [7] came to 0.1 µg/mL (≈ 0.281 µM).
In turn, `O=C(NCCCCCCNC(=O)c1cc(Br)ccc1O)c1cc(Br)ccc1O` gave an MIC in the data set on Actinomyces viscosus [4] greater than 20 µg/mL.
On the same count and under the same terms, in the case of `CCCCCCCC(=O)c1ccc(O)c(C(=O)Nc2cccc(C(F)(F)F)c2)c1` it was 0.5 µg/mL (≈ 1.23 µM); in that of `CCCCCCc1ccc(O)c(C(=O)NCc2ccc(Cl)cc2)c1`, 10 µg/mL (≈ 28.9 µM).
Same read-out and setting: in the case of `CCCCCCCCCCCC(=O)c1ccc(O)c(C(=O)NCc2ccc(Cl)c(Cl)c2)c1` it was 5 µg/mL (≈ 10.5 µM).
Turning to `CCCCCC(=O)c1ccc(O)c(C(=O)Nc2ccc(Br)cc2)c1`, the logD in [8] stood at 4.88. The “Log 1/MIC” value in data set [9] is given as 5.6. In addition, in [10], the logP worked out at 6.02. The compound also returned a pKa in [11] of 6.1. The same compound returned an MIC in the data set with Actinomyces viscosus [4] of 1 µg/mL (≈ 2.56 µM).
On the same counts, the results for `Cc1cc(C(=O)Nc2ccc(Br)cc2)c(O)c([N+](=O)[O-])c1` are 3.46, 3.94, 5.06, 5.6 and 45 µg/mL (≈ 128 µM).
For the compound `CCCCCCCCCCc1ccc(O)c(C(=O)Nc2ccc(Br)cc2)c1`, in the data set with Actinomyces viscosus [4], the MIC amounted to 3.25 µg/mL (≈ 7.52 µM).
Same read-out and setting: in the case of `CCCCCCCCCCCC(=O)c1ccc(O)c(C(=O)Nc2nc3ccccc3s2)c1` it was greater than 20 µg/mL.
Turning to `CCCCc1ccc(O)c(C(=O)Nc2ccc(Br)cc2)c1`, the logD in data set [8] was found to be 5.88. Moreover, the “Log 1/MIC” value in data set [9] worked out at 6.54. The logP in data set [10] turned out to be 6.09. Also, the pKa in data set [11] turned out to be 7.35. The compound also returned an MIC in the data set with Actinomyces viscosus [4] of 0.1 µg/mL (≈ 0.287 µM).
In the case of `O=C(Nc1nccs1)c1cc(Br)cc(Br)c1O`, in the data set with Actinomyces viscosus [4], the MIC was determined as 95 µg/mL (≈ 251 µM).
Still for that read-out and setting: in the case of `O=C(Nc1ccc([N+](=O)[O-])cc1)c1cc(Br)cc(Br)c1O` it was 0.5 µg/mL (≈ 1.2 µM).
As to `CCCc1ccc(O)c(C(=O)Nc2ccc(Br)cc2)c1`, in data set [8], the logD was found to be 5.38. Moreover, the “Log 1/MIC” value in data set [9] is reported as 5.35. Also, the logP in data set [10] stood at 5.61. This compound came in with a pKa in data set [11] of 7.35. Besides, the MIC against Actinomyces viscosus [4] worked out at 1.5 µg/mL (≈ 4.49 µM).
In the data set with Actinomyces viscosus [4], `O=C(Nc1nc2ccccc2s1)c1cc(Br)cc(Br)c1O` showed an MIC of 1.7 µg/mL (≈ 3.97 µM).
`CCCCCCc1ccc(O)c(C(=O)Nc2cccc(C(F)(F)F)c2)c1`: the MIC in the data set on Actinomyces israelii [1] is greater than 5 µg/mL; against Actinomyces naeslundii [2], 0.05 µg/mL (≈ 0.137 µM); in the data set on Actinomyces naeslundii [3] it was 0.1 µg/mL (≈ 0.274 µM); in the data set on Actinomyces viscosus [4], 0.5 µg/mL (≈ 1.37 µM); against Actinomyces israelii [5] it was 0.5 µg/mL (≈ 1.37 µM); against Actinomyces viscosus [6] it was 0.05 µg/mL (≈ 0.137 µM). In the data set on Actinomyces israelii [7], this compound had an MIC of 0.5 µg/mL (≈ 1.37 µM).
Regarding `Cc1cc(C)nc(NC(=O)c2cc(Br)cc(Br)c2O)c1`, the MIC with Actinomyces viscosus [4] is 25 µg/mL (≈ 62.5 µM).
Still for that read-out and setting: in the case of `Cc1ccc(O)c(C(=O)NCCCCCCNC(=O)c2cc(C)ccc2O)c1` it was greater than 20 µg/mL; in that of `Cc1cc(C)nc(NC(=O)c2cc(Br)cc(Br)c2O)n1`, 200 µg/mL (≈ 499 µM); in that of `CCCCCCc1ccc(O)c(C(=O)NCc2cccc([N+](=O)[O-])c2)c1`, 0.5 µg/mL (≈ 1.4 µM).
For the compound `Cc1cccnc1NC(=O)c1cc(Br)cc(Br)c1O`, in the data set on Actinomyces viscosus [4], the MIC is greater than 155 µg/mL.
The compound `CCCCCCCCCCCCCC(=O)c1ccc(O)c(C(=O)Nc2ccc(Br)cc2)c1` registered an MIC in the data set with Actinomyces viscosus [4] greater than 5 µg/mL.
Compound `CCCCCCc1ccc(O)c(C(=O)Nc2nc3ccccc3s2)c1` had an MIC with Actinomyces viscosus [4] greater than 20 µg/mL.
On the same count and under the same terms, then `COc1ccc(O)c(C(=O)Nc2ccc(Br)cc2)c1`, with greater than 25 µg/mL; and `O=C(NCC1CCCCC1)c1cc(Br)cc(Br)c1O`, with 12 µg/mL (≈ 30.7 µM).
In the case of `CCCCCCc1cc(C(=O)Nc2ccc(Br)cc2)c(O)c([N+](=O)[O-])c1`, the logD in data set [8] is 5.96. For the same compound, the “Log 1/MIC” value in data set [9] is listed as 6.02. Also, the logP in [10] amounted to 7.56. For the same compound, the pKa in data set [11] is 5.6. In the data set with Actinomyces viscosus [4], this compound displayed an MIC of 0.4 µg/mL (≈ 0.949 µM).
On to `O=C(NCCCCCCNC(=O)c1ccccc1O)c1ccccc1O`, for which the MIC with Actinomyces viscosus [4] was greater than 20 µg/mL.
Consider `CCCCCCCC(=O)c1ccc(O)c(C(=O)Nc2nc3ccccc3s2)c1`, for which, in the data set with Actinomyces viscosus [4], the lowest concentration to inhibit growth (MIC) was 1 µg/mL (≈ 2.52 µM).
`CCCCCCCC(=O)c1ccc(O)c(C(=O)Nc2ccc(Br)cc2)c1` had a logD in data set [8] of 5.88. The “Log 1/MIC” value in [9] is given as 5.92. Also, the logP in data set [10] stood at 7.02. Further, the pKa in data set [11] amounted to 6.1. The MIC with Actinomyces viscosus [4] turned out to be 0.5 µg/mL (≈ 1.2 µM).
`Cc1ccc(O)c(C(=O)Nc2ccc(Br)cc2)c1`: in [8], the logD worked out at 4.38. Moreover, the “Log 1/MIC” value in data set [9] turned out to be 5.09. Also, in data set [10], the logP amounted to 4.61. This compound had a pKa in data set [11] of 7.35. The MIC against Actinomyces viscosus [4] is 2.5 µg/mL (≈ 8.17 µM); with Actinomyces viscosus [6], 5.2 µg/mL (≈ 17 µM).
In data set [8], `O=C(Nc1ccc(Br)cc1)c1cc(Br)ccc1O` [DIBROMSALAN] came in with a logD of 4.75. Besides, the “Log 1/MIC” value in [9] came out at 5.87. Moreover, in data set [10], the logP was 5.26. The pKa in data set [11] amounted to 6.85. This compound also came in with an MIC in the data set on Actinomyces viscosus [4] of 0.5 µg/mL (≈ 1.35 µM).

Source of the values: ChEMBL document CHEMBL1121855, “Potential salicylamide antiplaque agents: in vitro antibacterial activity against Actinomyces viscosus” (J Med Chem, 1981).
